Values of other authors, collected in article PMC8513935.
Blank lines part the entries; values can stand above or below the compound they belong to.

Assays:
[1] = derived by the authors as gas->solvent minus gas->water (a hypothetical dry solvent; the ESI), not a two-phase measurement
[2] = experimental, compiled by the authors from the literature (the ESI cites the sources)
[3] = log P octanol/water from commercial databases, averaged (the ESI); conditions: Octanol (wet), 25 C

log K of transfer, water to solvent ([1]; Heptan-1-ol, 25 C): 3.74 log10 K
log K of transfer, water to solvent ([1]; Hexadecane, 25 C): 4.07 log10 K
log K of transfer, water to solvent ([1]; Pentan-1-ol, 25 C): 3.74 log10 K
log K of transfer, gas to solvent ([2]; Heptan-1-ol, 25 C): 2.57 log10 K
log K of transfer, gas to solvent ([2]; Hexadecane, 25 C): 2.91 log10 K
log K of transfer, gas to solvent ([2]; Pentan-1-ol, 25 C): 2.57 log10 K
log K of transfer, gas to solvent ([2]; Water, 25 C): -1.17 log10 K
log K of transfer, water to solvent [3]: 3.37 log10 K
Compound: CC1CCCC1

log K of transfer, water to solvent ([1]; Cyclohexane, 25 C): 0.65 log10 K
log K of transfer, water to solvent ([1]; Hexadecane, 25 C): 0.311 log10 K
log K of transfer, water to solvent ([1]; Octan-1-ol(dry), 25 C): 0.7 log10 K
log K of transfer, gas to solvent ([2]; Cyclohexane, 25 C): 3.15 log10 K
log K of transfer, gas to solvent ([2]; Hexadecane, 25 C): 2.81 log10 K
log K of transfer, gas to solvent ([2]; Octan-1-ol, 25 C): 3.2 log10 K
log K of transfer, gas to solvent ([2]; Water, 25 C): 2.5 log10 K
log K of transfer, water to solvent [3]: 0.82 log10 K
Compound: CCC(=O)CC

Continued, compound first:

Compound: C=CCCCCCC
log K of transfer, water to solvent ([1]; Butyronitrile, 25 C): 4.72 log10 K
log K of transfer, water to solvent ([1]; Hexadecane, 25 C): 4.98 log10 K
log K of transfer, water to solvent ([1]; Octan-1-ol(dry), 25 C): 4.76 log10 K
log K of transfer, water to solvent ([1]; Propionitrile, 25 C): 4.73 log10 K
log K of transfer, gas to solvent ([2]; Butyronitrile, 25 C): 3.31 log10 K
log K of transfer, gas to solvent ([2]; Hexadecane, 25 C): 3.57 log10 K
log K of transfer, gas to solvent ([2]; Octan-1-ol, 25 C): 3.35 log10 K
log K of transfer, gas to solvent ([2]; Propionitrile, 25 C): 3.32 log10 K
log K of transfer, gas to solvent ([2]; Water, 25 C): -1.41 log10 K
log K of transfer, water to solvent [3]: 4.57 log10 K

Compound: Cc1ccc(C)cc1
log K of transfer, water to solvent ([1]; 1,2-Dichloroethane, 25 C): 3.78 log10 K
log K of transfer, water to solvent ([1]; 2-Methylpropan-1-ol, 25 C): 3.03 log10 K
log K of transfer, water to solvent ([1]; CCl4, 25 C): 3.61 log10 K
log K of transfer, water to solvent ([1]; Cyclohexane, 25 C): 3.27 log10 K
log K of transfer, water to solvent ([1]; Ethanol, 25 C): 3.14 log10 K
log K of transfer, water to solvent ([1]; Hexadecane, 25 C): 3.25 log10 K
log K of transfer, water to solvent ([1]; Octan-1-ol(dry), 25 C): 3.2 log10 K
log K of transfer, gas to solvent ([2]; 1,2-Dichloroethane, 25 C): 4.37 log10 K
log K of transfer, gas to solvent ([2]; 2-Methylpropan-1-ol, 25 C): 3.62 log10 K
log K of transfer, gas to solvent ([2]; CCl4, 25 C): 4.2 log10 K
log K of transfer, gas to solvent ([2]; Cyclohexane, 25 C): 3.86 log10 K
log K of transfer, gas to solvent ([2]; Ethanol, 25 C): 3.73 log10 K
log K of transfer, gas to solvent ([2]; Hexadecane, 25 C): 3.84 log10 K
log K of transfer, gas to solvent ([2]; Octan-1-ol, 25 C): 3.79 log10 K
log K of transfer, gas to solvent ([2]; Water, 25 C): 0.59 log10 K
log K of transfer, water to solvent [3]: 3.15 log10 K

Compound: CCCC(C)C
log K of transfer, water to solvent ([1]; 1,2-Dichloroethane, 25 C): 4.18 log10 K
log K of transfer, water to solvent ([1]; Acetone, 25 C): 4.08 log10 K
log K of transfer, water to solvent ([1]; Acetonitrile, 25 C): 3.66 log10 K
log K of transfer, water to solvent ([1]; Butan-1-ol, 25 C): 4.13 log10 K
log K of transfer, water to solvent ([1]; Butanone, 25 C): 4.23 log10 K
log K of transfer, water to solvent ([1]; Butyronitrile, 25 C): 4.05 log10 K
log K of transfer, water to solvent ([1]; CCl4, 25 C): 4.65 log10 K
log K of transfer, water to solvent ([1]; Chlorobenzene, 25 C): 4.62 log10 K
log K of transfer, water to solvent ([1]; Chloroform, 25 C): 4.55 log10 K
log K of transfer, water to solvent ([1]; Cyclohexanone, 25 C): 4.14 log10 K
log K of transfer, water to solvent ([1]; Dichloromethane, 25 C): 4.43 log10 K
log K of transfer, water to solvent ([1]; Ethanol, 25 C): 4 log10 K
log K of transfer, water to solvent ([1]; Hexadecane, 25 C): 4.34 log10 K
log K of transfer, water to solvent ([1]; Hexane, 25 C): 4.66 log10 K
log K of transfer, water to solvent ([1]; Methanol, 25 C): 3.79 log10 K
log K of transfer, water to solvent ([1]; Pentan-1-ol, 25 C): 4.26 log10 K
log K of transfer, water to solvent ([1]; Perfluoroalkane, 25 C): 3.65 log10 K
log K of transfer, water to solvent ([1]; Propan-1-ol, 25 C): 3.99 log10 K
log K of transfer, water to solvent ([1]; Propan-2-ol, 25 C): 4 log10 K
log K of transfer, water to solvent ([1]; Propionitrile, 25 C): 3.92 log10 K
log K of transfer, water to solvent ([1]; Tetrahydrofuran, 25 C): 4.54 log10 K
log K of transfer, water to solvent ([1]; Toluene, 25 C): 4.49 log10 K
log K of transfer, gas to solvent ([2]; 1,2-Dichloroethane, 25 C): 2.34 log10 K
log K of transfer, gas to solvent ([2]; Acetonitrile, 25 C): 1.82 log10 K
log K of transfer, gas to solvent ([2]; Butan-1-ol, 25 C): 2.29 log10 K
log K of transfer, gas to solvent ([2]; Butanone, 25 C): 2.39 log10 K
log K of transfer, gas to solvent ([2]; Butyronitrile, 25 C): 2.21 log10 K
log K of transfer, gas to solvent ([2]; CCl4, 25 C): 2.81 log10 K
log K of transfer, gas to solvent ([2]; Chlorobenzene, 25 C): 2.78 log10 K
log K of transfer, gas to solvent ([2]; Chloroform, 25 C): 2.71 log10 K
log K of transfer, gas to solvent ([2]; Cyclohexanone, 25 C): 2.3 log10 K
log K of transfer, gas to solvent ([2]; Dichloromethane, 25 C): 2.59 log10 K
log K of transfer, gas to solvent ([2]; Ethanol, 25 C): 2.16 log10 K
log K of transfer, gas to solvent ([2]; Hexadecane, 25 C): 2.5 log10 K
log K of transfer, gas to solvent ([2]; Hexane, 25 C): 2.82 log10 K
log K of transfer, gas to solvent ([2]; Methanol, 25 C): 1.95 log10 K
log K of transfer, gas to solvent ([2]; Pentan-1-ol, 25 C): 2.42 log10 K
log K of transfer, gas to solvent ([2]; Perfluoroalkane, 25 C): 1.81 log10 K
log K of transfer, gas to solvent ([2]; Propan-1-ol, 25 C): 2.15 log10 K
log K of transfer, gas to solvent ([2]; Propan-2-ol, 25 C): 2.16 log10 K
log K of transfer, gas to solvent ([2]; Propanone, 25 C): 2.24 log10 K
log K of transfer, gas to solvent ([2]; Propionitrile, 25 C): 2.08 log10 K
log K of transfer, gas to solvent ([2]; Tetrahydrofuran, 25 C): 2.7 log10 K
log K of transfer, gas to solvent ([2]; Toluene, 25 C): 2.65 log10 K
log K of transfer, gas to solvent ([2]; Water, 25 C): -1.84 log10 K
log K of transfer, water to solvent [3]: 3.73 log10 K
